{
  "source": "ChEMBL document CHEMBL5291721",
  "about": "“A preclinical secondary pharmacology resource illuminates target-adverse drug reaction associations of marketed drugs” (Nat Commun, 2023); further: assay procedure not described here",
  "key": {"[1]": {"target": "T1, Peroxisome proliferator-activated receptor alpha (Homo sapiens, UniProt Q07869)", "T1 sequence (Q07869 whole entry)": "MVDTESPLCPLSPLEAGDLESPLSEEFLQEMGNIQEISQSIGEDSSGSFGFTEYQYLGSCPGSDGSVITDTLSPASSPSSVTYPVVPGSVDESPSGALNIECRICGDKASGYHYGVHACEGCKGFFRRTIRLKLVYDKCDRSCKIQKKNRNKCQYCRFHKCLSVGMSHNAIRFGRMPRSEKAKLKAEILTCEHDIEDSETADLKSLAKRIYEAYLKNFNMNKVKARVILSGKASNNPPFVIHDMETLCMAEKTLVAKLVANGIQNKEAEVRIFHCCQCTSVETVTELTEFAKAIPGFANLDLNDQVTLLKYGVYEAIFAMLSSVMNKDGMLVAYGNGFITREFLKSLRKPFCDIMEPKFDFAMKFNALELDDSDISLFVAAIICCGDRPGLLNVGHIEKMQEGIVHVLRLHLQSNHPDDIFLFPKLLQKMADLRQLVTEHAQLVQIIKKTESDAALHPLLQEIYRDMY", "type": "functional"}, "[2]": {"target": "Rod cGMP-specific 3',5'-cyclic phosphodiesterase subunit alpha (Homo sapiens, UniProt P16499)", "sequence (P16499 whole entry)": "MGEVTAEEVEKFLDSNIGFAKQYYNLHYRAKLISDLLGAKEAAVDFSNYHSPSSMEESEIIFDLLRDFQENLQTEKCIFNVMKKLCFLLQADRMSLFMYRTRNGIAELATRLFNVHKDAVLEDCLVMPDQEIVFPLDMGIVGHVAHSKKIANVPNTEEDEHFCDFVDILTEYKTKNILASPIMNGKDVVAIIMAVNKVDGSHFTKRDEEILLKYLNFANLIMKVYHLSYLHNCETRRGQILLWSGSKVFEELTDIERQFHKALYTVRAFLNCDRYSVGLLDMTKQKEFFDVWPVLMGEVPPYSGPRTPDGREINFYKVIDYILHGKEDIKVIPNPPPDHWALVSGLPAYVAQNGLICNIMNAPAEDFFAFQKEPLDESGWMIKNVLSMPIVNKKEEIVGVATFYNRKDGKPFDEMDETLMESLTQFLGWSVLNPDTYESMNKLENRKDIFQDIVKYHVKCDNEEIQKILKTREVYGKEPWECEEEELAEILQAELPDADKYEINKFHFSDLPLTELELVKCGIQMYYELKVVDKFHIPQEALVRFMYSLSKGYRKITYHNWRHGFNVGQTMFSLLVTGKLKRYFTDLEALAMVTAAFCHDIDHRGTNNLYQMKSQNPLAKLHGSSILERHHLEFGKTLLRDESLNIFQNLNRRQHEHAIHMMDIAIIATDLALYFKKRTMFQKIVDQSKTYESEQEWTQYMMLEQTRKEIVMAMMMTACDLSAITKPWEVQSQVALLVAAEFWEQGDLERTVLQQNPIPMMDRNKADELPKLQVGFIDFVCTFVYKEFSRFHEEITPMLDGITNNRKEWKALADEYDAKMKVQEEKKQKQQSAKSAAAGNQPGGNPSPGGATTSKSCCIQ", "type": "functional"}, "D(1B) dopamine receptor": {"target": "D(1B) dopamine receptor (Homo sapiens, UniProt P21918)", "sequence (P21918 whole entry)": "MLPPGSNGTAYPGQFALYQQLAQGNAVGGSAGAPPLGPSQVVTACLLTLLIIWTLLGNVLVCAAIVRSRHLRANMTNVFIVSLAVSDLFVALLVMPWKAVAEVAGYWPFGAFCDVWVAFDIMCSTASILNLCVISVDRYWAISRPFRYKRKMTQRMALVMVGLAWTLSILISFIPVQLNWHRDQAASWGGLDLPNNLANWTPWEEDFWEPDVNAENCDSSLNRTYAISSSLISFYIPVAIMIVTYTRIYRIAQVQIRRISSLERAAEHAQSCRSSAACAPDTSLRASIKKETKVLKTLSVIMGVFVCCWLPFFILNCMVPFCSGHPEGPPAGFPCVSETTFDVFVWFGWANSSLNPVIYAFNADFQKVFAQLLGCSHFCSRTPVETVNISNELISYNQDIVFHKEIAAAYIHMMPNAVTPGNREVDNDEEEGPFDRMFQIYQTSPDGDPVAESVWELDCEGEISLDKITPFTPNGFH"}, "[3]": {"target": "T2, Muscarinic acetylcholine receptor M4 (Homo sapiens, UniProt P08173)", "T2 sequence (P08173 whole entry)": "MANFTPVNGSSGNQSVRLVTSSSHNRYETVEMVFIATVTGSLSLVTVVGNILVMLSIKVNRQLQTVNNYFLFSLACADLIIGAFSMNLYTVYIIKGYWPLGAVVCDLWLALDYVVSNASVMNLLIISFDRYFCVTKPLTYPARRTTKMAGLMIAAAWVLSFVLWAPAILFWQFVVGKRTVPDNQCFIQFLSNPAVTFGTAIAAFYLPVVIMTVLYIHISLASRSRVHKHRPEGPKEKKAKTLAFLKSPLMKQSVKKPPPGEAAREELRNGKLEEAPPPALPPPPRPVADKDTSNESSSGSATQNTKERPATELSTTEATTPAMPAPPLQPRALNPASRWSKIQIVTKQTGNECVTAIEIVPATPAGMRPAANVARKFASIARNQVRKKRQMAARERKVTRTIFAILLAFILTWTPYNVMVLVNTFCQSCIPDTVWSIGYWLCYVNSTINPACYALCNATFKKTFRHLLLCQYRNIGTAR"}, "[4]": {"target": "Voltage-dependent L-type calcium channel subunit alpha-1C (Homo sapiens, UniProt Q13936)", "sequence (Q13936 whole entry)": "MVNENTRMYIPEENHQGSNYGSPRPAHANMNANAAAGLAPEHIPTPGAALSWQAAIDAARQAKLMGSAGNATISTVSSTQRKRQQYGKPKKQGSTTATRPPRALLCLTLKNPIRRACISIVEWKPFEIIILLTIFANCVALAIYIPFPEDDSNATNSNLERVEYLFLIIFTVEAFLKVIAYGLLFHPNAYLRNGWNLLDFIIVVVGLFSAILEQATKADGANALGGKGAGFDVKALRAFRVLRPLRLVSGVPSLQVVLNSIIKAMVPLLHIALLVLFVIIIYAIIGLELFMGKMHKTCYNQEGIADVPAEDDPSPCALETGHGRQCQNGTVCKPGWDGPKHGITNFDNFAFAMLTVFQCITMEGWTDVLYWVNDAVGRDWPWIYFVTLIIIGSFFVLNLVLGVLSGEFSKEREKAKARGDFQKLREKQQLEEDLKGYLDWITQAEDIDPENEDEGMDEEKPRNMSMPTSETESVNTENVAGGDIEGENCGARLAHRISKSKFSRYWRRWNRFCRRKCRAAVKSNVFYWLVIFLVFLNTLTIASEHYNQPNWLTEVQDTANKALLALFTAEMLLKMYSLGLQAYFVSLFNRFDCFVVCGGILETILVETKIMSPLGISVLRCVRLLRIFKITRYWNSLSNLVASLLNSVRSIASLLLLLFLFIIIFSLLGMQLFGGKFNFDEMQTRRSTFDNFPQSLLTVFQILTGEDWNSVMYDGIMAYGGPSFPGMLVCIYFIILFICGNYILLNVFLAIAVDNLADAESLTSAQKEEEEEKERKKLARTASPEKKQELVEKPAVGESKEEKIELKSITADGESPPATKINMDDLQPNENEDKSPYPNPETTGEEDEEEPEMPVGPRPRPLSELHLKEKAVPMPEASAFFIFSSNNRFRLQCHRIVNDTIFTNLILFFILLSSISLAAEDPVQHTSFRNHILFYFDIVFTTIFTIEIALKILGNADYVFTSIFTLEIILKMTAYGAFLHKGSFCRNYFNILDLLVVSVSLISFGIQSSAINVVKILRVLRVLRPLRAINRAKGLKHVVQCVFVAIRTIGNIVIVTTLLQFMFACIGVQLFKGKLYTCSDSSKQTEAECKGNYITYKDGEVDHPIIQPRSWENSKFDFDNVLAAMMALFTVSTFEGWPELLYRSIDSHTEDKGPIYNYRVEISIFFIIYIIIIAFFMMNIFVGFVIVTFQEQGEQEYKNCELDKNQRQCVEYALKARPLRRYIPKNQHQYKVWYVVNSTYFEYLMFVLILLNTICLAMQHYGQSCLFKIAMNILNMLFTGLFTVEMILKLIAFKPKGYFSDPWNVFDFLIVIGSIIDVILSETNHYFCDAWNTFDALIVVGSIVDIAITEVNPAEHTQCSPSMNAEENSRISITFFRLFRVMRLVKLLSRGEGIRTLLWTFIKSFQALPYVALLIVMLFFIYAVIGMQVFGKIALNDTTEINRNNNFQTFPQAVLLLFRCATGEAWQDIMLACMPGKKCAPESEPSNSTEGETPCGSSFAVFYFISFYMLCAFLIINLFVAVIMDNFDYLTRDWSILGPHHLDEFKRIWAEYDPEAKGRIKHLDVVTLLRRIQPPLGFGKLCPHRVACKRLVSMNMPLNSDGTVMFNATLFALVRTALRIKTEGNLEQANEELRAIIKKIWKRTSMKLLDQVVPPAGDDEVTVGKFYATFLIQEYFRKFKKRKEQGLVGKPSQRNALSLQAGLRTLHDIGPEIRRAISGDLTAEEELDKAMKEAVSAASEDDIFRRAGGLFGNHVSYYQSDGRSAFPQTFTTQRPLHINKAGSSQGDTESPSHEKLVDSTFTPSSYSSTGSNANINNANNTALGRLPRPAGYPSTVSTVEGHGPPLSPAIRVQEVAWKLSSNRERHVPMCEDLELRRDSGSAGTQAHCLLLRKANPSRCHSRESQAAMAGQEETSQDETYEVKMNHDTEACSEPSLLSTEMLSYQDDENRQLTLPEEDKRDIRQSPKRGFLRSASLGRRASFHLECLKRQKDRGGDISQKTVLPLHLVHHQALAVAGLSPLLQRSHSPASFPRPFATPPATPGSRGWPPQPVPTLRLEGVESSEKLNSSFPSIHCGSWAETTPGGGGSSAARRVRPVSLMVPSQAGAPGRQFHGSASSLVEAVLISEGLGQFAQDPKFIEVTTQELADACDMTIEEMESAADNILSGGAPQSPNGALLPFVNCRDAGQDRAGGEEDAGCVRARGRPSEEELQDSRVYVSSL", "type": "functional, cell-based"}, "Thromboxane A2 receptor [5]": {"target": "T3, Thromboxane A2 receptor (Homo sapiens, UniProt P21731)", "T3 sequence (P21731 whole entry)": "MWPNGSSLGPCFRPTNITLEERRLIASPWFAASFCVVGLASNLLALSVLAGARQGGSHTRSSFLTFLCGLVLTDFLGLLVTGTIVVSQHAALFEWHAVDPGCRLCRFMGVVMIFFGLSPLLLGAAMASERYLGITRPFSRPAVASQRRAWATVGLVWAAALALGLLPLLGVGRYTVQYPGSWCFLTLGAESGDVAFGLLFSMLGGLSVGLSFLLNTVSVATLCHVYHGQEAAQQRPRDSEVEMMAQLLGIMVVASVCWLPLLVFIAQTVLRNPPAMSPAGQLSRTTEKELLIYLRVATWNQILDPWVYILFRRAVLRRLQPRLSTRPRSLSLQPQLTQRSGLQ", "type": "functional, cell-based"}, "[6]": {"target": "Gamma-aminobutyric acid receptor subunit alpha-1 (Rattus norvegicus, UniProt P62813)", "sequence (P62813 whole entry)": "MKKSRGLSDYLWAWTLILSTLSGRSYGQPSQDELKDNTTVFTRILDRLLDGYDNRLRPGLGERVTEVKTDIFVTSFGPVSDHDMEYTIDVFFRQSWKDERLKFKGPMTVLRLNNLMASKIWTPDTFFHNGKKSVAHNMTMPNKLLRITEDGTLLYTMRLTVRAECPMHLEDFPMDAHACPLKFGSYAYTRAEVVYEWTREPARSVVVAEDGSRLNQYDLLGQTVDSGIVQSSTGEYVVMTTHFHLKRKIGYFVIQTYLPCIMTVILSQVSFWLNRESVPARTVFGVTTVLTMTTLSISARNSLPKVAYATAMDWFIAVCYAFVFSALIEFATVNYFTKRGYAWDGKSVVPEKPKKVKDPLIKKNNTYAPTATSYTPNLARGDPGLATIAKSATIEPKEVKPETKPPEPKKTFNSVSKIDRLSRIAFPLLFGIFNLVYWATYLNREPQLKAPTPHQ"}, "Thromboxane A2 receptor [7]": {"target": "T3, Thromboxane A2 receptor", "type": "functional, cell-based", "remark": "listed apart in the source"}, "[8]": {"target": "3',5'-cyclic-AMP phosphodiesterase 4A (Homo sapiens, UniProt P27815)", "type": "functional"}, "[9]": {"target": "Sodium-dependent dopamine transporter (Homo sapiens, UniProt Q01959)"}, "Progesterone receptor": {"target": "T4, Progesterone receptor (Homo sapiens, UniProt P06401)", "T4 sequence (P06401 whole entry)": "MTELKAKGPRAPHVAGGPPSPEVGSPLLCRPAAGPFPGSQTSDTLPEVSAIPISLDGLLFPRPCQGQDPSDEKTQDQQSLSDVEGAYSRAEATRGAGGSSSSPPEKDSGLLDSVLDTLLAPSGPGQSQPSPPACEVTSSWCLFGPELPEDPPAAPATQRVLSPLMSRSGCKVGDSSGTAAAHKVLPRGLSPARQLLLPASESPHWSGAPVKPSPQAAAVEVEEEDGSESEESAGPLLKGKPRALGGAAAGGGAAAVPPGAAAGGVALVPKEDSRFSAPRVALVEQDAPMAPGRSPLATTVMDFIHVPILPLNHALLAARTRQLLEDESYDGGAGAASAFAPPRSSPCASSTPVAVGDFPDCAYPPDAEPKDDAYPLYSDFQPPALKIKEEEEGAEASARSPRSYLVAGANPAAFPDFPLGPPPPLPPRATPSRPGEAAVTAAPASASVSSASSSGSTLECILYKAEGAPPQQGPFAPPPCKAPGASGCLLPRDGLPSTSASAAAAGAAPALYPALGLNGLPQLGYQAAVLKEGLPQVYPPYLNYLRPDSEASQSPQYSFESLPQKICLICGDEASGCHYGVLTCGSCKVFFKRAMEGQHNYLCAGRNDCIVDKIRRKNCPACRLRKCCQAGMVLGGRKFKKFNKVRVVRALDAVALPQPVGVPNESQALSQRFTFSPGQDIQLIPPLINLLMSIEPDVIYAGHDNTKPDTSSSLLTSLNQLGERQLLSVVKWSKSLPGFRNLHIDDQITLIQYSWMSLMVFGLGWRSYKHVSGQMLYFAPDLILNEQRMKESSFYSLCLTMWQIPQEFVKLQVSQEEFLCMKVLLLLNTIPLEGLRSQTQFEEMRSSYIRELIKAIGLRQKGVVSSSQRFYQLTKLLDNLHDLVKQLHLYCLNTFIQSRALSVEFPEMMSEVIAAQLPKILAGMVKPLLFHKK"}, "[10]": {"target": "5-hydroxytryptamine receptor 2B (Homo sapiens, UniProt P41595)", "type": "functional, cell-based"}, "D(1A) dopamine receptor": {"target": "D(1A) dopamine receptor (Homo sapiens, UniProt P21728)"}, "[11]": {"target": "Sodium-dependent noradrenaline transporter (Homo sapiens, UniProt P23975)", "sequence (P23975 whole entry)": "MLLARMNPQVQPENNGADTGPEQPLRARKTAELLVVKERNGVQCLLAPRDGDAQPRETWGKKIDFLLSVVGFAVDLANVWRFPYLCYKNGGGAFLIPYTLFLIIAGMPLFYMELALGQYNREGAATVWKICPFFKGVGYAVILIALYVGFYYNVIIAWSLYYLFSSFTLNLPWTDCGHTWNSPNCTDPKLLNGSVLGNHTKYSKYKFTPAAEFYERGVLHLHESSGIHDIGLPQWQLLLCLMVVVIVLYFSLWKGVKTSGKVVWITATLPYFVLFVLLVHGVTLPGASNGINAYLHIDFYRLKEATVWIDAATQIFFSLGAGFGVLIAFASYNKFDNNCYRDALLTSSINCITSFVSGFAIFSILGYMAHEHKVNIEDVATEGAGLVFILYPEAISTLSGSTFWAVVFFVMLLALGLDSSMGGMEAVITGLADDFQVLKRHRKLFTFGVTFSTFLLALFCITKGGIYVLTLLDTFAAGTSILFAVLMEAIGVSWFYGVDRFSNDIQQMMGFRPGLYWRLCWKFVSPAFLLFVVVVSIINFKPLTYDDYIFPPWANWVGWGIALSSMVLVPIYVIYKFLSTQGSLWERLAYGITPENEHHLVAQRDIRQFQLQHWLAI"}, "D(3) dopamine receptor": {"target": "D(3) dopamine receptor (Homo sapiens, UniProt P35462)", "sequence (P35462 whole entry)": "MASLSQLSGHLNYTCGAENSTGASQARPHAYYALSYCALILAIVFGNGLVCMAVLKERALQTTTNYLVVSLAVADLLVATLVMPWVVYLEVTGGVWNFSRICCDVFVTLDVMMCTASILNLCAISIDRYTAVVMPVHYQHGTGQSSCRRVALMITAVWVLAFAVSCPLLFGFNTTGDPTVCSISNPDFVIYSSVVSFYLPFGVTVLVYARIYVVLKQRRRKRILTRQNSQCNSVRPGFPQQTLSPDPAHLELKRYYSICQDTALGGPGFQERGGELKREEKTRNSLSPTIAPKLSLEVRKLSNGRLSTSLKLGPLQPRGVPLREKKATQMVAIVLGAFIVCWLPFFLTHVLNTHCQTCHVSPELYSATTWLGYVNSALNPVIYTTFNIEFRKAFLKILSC"}, "Histamine H3 receptor": {"target": "Histamine H3 receptor (Homo sapiens, UniProt Q9Y5N1)"}},
  "data": [
    {"compound": "CC(C)c1c(C(=O)Nc2ccccc2)c(-c2ccccc2)c(-c2ccc(F)cc2)n1CC[C@@H](O)C[C@@H](O)CC(=O)O", "note": "[ATORVASTATIN]", "values": [
      {"measurement": "AC50", "setting": "[1]", "result": "> 30", "unit": "µM"}
    ]},
    {"compound": "CN(C)C(=O)OC1N=C(c2ccccc2)c2cc(Cl)ccc2N(C)C1=O", "note": "(stereo not drawn) [CAMAZEPAM]", "values": [
      {"measurement": "AC50", "setting": "[2]", "result": "> 10", "unit": "µM"},
      {"measurement": "AC50", "setting": "D(1B) dopamine receptor", "result": "> 10", "unit": "µM"},
      {"measurement": "AC50", "setting": "[3]", "result": "> 10", "unit": "µM"}
    ]},
    {"compound": "CC(C)(Oc1ccc(C2CC2(Cl)Cl)cc1)C(=O)O", "note": "(stereo not drawn) [CIPROFIBRATE]", "values": [
      {"measurement": "AC50", "setting": "[1]", "result": "> 30", "unit": "µM"}
    ]},
    {"compound": "CCCCOc1cc(C(=O)NCCN(CC)CC)c2ccccc2n1", "note": "[DIBUCAINE]", "values": [
      {"measurement": "AC50", "setting": "[4]", "result": 22, "unit": "µM"}
    ]},
    {"compound": "NC(=O)C[S+]([O-])C(c1ccccc1)c1ccccc1", "note": "(stereo not drawn) [MODAFINIL]", "values": [
      {"measurement": "AC50", "setting": "[2]", "result": "> 10", "unit": "µM"},
      {"measurement": "AC50", "setting": "D(1B) dopamine receptor", "result": "> 10", "unit": "µM"},
      {"measurement": "AC50", "setting": "[3]", "result": "> 10", "unit": "µM"}
    ]},
    {"compound": "O=C(O)CCCc1ccccc1", "note": "[PHENYLBUTANOIC ACID]", "values": [
      {"measurement": "AC50", "setting": "[3]", "result": "> 10", "unit": "µM"}
    ]},
    {"compound": "CC(Cc1ccccc1)NCCC(c1ccccc1)c1ccccc1", "note": "(stereo not drawn) [PRENYLAMINE]", "values": [
      {"measurement": "AC50", "setting": "[4]", "result": 47, "unit": "µM"}
    ]},
    {"compound": "Nc1nc2ccc(OC(F)(F)F)cc2s1", "note": "[RILUZOLE]", "values": [
      {"measurement": "AC50", "setting": "Thromboxane A2 receptor [5]", "result": "> 30", "unit": "µM"},
      {"measurement": "AC50", "setting": "[6]", "result": "> 30", "unit": "µM"},
      {"measurement": "AC50", "setting": "Thromboxane A2 receptor [7]", "result": "> 30", "unit": "µM"},
      {"measurement": "AC50", "setting": "[8]", "result": "> 30", "unit": "µM"},
      {"measurement": "AC50", "setting": "[4]", "result": "> 50", "unit": "µM"},
      {"measurement": "AC50", "setting": "[9]", "result": 18.7, "unit": "µM"},
      {"measurement": "AC50", "setting": "Progesterone receptor", "result": "> 30", "unit": "µM"},
      {"measurement": "AC50", "setting": "[10]", "result": "> 30", "unit": "µM"},
      {"measurement": "AC50", "setting": "D(1A) dopamine receptor", "result": "> 30", "unit": "µM"},
      {"measurement": "AC50", "setting": "[11]", "result": 2590, "unit": "nM"},
      {"measurement": "AC50", "setting": "D(3) dopamine receptor", "result": "> 30", "unit": "µM"},
      {"measurement": "AC50", "setting": "Histamine H3 receptor", "result": "> 30", "unit": "µM"}
    ]},
    {"compound": "O=C1NCCN1CCN1CCC(c2cn(-c3ccc(F)cc3)c3ccc(Cl)cc23)CC1", "note": "[SERTINDOLE]", "values": [
      {"measurement": "AC50", "setting": "[4]", "result": "> 50", "unit": "µM"}
    ]},
    {"compound": "Cc1ccc(-c2nc3ccc(C)cn3c2CC(=O)N(C)C)cc1", "note": "[ZOLPIDEM]", "values": [
      {"measurement": "AC50", "setting": "[2]", "result": "> 10", "unit": "µM"},
      {"measurement": "AC50", "setting": "D(1B) dopamine receptor", "result": "> 10", "unit": "µM"},
      {"measurement": "AC50", "setting": "[3]", "result": "> 10", "unit": "µM"}
    ]},
    {"compound": "BIVALIRUDIN", "values": [
      {"measurement": "AC50", "setting": "Thromboxane A2 receptor [5]", "result": "> 30", "unit": "µM"},
      {"measurement": "AC50", "setting": "[6]", "result": "> 30", "unit": "µM"},
      {"measurement": "AC50", "setting": "Thromboxane A2 receptor [7]", "result": "> 30", "unit": "µM"},
      {"measurement": "AC50", "setting": "[8]", "result": "> 30", "unit": "µM"},
      {"measurement": "AC50", "setting": "[9]", "result": "> 30", "unit": "µM"},
      {"measurement": "AC50", "setting": "Progesterone receptor", "result": "> 30", "unit": "µM"},
      {"measurement": "AC50", "setting": "[10]", "result": "> 30", "unit": "µM"},
      {"measurement": "AC50", "setting": "D(1A) dopamine receptor", "result": "> 30", "unit": "µM"},
      {"measurement": "AC50", "setting": "[11]", "result": "> 30000", "unit": "nM"},
      {"measurement": "AC50", "setting": "D(3) dopamine receptor", "result": "> 30", "unit": "µM"},
      {"measurement": "AC50", "setting": "Histamine H3 receptor", "result": "> 30", "unit": "µM"}
    ]}
  ]
}
